# Results reported in paper PMC12281424, “A Rac-specific competitive inhibitor of guanine nucleotide binding reduces metastasis in triple-negative breast cancer” (Cell Reports Medicine, 2025).
# Where “and” joins values, the source holds several entries; their conditions need not be identical. Identical values can stand only once.
# Columns and labels:
# Opiate µ(OP3, MOP) = Opiate µ(OP3, MOP) (Homo sapiens, UniProt P35372); experiment: Safety screen; assay type: binding
# Experimental: (§5) Blood cell counts, kinase profiler, safety screen, bacterial cytotoxicity, Ames, micronucleus assays were performed by the company Eurofins (France). The kinase profiler was performed by the company Eurofins (Discovery, Panlab and Cerep).
# IGF-1R(h) = IGF-1R(h) (Homo sapiens, UniProt P08069); experiment: Kinase Profiler; assay type: biochemical
# Sequence of IGF-1R(h) (P08069 31-1367): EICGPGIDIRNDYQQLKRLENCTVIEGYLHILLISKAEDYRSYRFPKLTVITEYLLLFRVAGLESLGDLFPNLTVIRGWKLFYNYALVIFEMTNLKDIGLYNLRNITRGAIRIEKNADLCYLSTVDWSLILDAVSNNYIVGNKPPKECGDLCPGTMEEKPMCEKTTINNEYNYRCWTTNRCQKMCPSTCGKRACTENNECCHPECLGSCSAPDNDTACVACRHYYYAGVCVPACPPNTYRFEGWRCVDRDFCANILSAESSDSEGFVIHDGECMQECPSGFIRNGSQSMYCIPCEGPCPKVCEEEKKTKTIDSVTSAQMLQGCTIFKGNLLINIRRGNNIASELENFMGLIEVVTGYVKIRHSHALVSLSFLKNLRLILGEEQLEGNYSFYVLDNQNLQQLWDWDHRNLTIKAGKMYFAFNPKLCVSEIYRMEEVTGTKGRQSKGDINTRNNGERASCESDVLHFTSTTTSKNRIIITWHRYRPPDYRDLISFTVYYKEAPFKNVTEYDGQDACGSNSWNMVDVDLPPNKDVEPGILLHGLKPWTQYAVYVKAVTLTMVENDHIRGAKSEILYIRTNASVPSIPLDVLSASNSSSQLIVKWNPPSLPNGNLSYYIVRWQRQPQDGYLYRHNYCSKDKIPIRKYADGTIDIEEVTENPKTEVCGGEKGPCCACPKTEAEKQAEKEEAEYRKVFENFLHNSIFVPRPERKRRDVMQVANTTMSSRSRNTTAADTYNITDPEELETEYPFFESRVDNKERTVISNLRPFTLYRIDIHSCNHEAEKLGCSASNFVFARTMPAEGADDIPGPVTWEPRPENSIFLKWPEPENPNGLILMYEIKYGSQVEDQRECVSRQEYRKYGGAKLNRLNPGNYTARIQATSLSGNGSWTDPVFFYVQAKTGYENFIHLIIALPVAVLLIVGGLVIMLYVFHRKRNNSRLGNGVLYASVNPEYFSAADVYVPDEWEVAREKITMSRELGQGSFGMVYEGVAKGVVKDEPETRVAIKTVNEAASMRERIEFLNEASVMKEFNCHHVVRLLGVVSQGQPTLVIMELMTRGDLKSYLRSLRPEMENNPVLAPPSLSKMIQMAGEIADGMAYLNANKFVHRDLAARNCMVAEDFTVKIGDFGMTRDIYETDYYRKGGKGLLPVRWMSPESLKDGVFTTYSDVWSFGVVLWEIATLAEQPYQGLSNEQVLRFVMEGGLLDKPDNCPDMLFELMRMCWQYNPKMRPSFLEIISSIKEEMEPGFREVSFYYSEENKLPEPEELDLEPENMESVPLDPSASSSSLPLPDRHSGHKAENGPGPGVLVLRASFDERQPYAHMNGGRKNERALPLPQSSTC
# Experimental: as §5
# EGFR(h) = EGFR(h) (Homo sapiens, UniProt P00533); experiment: Kinase Profiler; assay type: biochemical
# Experimental: (§6) The kinase profiler was performed by the company Eurofins (Discovery, Panlab and Cerep).
# GRK6(h) = GRK6(h) (Homo sapiens, UniProt P43250); experiment: Kinase Profiler; assay type: biochemical
# Experimental: as §5
# CaMKIIδ(h) = CaMKIIδ(h) (Homo sapiens, UniProt Q13557); experiment: Kinase Profiler; assay type: biochemical
# Experimental: as §6
# [1] = target: Transporter, Dopamine (DAT) (Homo sapiens, UniProt Q01959); experiment: Safety screen; assay type: binding
# Sequence of Transporter, Dopamine (DAT) (Q01959 whole entry): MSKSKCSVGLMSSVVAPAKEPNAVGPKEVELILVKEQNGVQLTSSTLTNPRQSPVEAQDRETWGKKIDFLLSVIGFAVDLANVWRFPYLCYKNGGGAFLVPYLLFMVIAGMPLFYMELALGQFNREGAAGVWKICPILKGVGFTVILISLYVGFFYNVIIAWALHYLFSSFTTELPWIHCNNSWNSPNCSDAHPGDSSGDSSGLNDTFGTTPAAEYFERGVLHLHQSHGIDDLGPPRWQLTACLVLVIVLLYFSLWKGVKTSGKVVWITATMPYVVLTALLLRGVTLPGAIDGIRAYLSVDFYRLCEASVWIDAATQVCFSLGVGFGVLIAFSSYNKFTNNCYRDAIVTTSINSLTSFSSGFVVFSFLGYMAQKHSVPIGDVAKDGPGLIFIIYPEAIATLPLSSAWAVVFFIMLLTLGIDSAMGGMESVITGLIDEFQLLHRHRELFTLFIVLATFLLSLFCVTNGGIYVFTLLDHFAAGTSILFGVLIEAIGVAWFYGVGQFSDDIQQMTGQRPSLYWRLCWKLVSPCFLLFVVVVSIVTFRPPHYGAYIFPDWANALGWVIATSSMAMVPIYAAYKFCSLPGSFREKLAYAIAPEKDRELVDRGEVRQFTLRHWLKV
# Experimental: Blood cell counts, kinase profiler, safety screen, bacterial cytotoxicity, Ames, micronucleus assays were performed by the company Eurofins (France).
# Axl(h) = Axl(h) (Homo sapiens, UniProt P30530); experiment: Kinase Profiler; assay type: biochemical
# Experimental: as §5
# PKCε(h) = PKCε(h) (Homo sapiens, UniProt Q02156); experiment: Kinase Profiler; assay type: biochemical
# Experimental: as §6
# [2] = target: Nicotinic Acetylcholine α1, Bungarotoxin (Homo sapiens, UniProt P02708+P07510+Q07001); experiment: Safety screen; assay type: binding
# eEF-2K(h) = eEF-2K(h) (Homo sapiens, UniProt O00418); experiment: Kinase Profiler; assay type: biochemical
# Sequence of eEF-2K(h) (O00418 whole entry): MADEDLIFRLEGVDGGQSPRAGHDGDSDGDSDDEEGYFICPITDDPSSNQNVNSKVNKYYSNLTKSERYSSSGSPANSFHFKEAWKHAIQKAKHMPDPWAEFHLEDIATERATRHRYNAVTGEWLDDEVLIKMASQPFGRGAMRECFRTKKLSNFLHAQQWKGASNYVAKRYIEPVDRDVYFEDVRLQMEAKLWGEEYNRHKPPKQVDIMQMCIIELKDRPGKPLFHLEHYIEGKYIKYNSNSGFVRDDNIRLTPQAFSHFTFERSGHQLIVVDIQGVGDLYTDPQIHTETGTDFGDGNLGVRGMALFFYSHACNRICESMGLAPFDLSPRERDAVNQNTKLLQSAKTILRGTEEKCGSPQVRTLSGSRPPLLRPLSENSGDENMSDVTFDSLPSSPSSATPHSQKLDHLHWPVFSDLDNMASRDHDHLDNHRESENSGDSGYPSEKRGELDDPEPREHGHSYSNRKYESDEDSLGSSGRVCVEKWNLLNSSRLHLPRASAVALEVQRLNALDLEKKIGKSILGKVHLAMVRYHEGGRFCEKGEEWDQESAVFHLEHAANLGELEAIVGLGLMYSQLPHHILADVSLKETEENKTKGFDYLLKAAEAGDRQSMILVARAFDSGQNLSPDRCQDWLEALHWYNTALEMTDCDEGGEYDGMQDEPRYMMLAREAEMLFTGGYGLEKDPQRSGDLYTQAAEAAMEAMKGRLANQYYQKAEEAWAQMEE
# Experimental: as §6
# PAK3(h) = PAK3(h) (Homo sapiens, UniProt O75914); experiment: Kinase Profiler; assay type: biochemical
# Experimental: as §6
# Progesterone PR-B = Progesterone PR-B (Homo sapiens, UniProt P06401); experiment: Safety screen; assay type: binding
# Experimental: as §5
# ALK(h) = ALK(h) (Homo sapiens, UniProt Q9UM73); experiment: Kinase Profiler; assay type: biochemical
# Experimental: as §6
# MLCK(h) = MLCK(h) (Homo sapiens, UniProt Q15746); experiment: Kinase Profiler; assay type: biochemical
# Sequence of MLCK(h) (Q15746 whole entry): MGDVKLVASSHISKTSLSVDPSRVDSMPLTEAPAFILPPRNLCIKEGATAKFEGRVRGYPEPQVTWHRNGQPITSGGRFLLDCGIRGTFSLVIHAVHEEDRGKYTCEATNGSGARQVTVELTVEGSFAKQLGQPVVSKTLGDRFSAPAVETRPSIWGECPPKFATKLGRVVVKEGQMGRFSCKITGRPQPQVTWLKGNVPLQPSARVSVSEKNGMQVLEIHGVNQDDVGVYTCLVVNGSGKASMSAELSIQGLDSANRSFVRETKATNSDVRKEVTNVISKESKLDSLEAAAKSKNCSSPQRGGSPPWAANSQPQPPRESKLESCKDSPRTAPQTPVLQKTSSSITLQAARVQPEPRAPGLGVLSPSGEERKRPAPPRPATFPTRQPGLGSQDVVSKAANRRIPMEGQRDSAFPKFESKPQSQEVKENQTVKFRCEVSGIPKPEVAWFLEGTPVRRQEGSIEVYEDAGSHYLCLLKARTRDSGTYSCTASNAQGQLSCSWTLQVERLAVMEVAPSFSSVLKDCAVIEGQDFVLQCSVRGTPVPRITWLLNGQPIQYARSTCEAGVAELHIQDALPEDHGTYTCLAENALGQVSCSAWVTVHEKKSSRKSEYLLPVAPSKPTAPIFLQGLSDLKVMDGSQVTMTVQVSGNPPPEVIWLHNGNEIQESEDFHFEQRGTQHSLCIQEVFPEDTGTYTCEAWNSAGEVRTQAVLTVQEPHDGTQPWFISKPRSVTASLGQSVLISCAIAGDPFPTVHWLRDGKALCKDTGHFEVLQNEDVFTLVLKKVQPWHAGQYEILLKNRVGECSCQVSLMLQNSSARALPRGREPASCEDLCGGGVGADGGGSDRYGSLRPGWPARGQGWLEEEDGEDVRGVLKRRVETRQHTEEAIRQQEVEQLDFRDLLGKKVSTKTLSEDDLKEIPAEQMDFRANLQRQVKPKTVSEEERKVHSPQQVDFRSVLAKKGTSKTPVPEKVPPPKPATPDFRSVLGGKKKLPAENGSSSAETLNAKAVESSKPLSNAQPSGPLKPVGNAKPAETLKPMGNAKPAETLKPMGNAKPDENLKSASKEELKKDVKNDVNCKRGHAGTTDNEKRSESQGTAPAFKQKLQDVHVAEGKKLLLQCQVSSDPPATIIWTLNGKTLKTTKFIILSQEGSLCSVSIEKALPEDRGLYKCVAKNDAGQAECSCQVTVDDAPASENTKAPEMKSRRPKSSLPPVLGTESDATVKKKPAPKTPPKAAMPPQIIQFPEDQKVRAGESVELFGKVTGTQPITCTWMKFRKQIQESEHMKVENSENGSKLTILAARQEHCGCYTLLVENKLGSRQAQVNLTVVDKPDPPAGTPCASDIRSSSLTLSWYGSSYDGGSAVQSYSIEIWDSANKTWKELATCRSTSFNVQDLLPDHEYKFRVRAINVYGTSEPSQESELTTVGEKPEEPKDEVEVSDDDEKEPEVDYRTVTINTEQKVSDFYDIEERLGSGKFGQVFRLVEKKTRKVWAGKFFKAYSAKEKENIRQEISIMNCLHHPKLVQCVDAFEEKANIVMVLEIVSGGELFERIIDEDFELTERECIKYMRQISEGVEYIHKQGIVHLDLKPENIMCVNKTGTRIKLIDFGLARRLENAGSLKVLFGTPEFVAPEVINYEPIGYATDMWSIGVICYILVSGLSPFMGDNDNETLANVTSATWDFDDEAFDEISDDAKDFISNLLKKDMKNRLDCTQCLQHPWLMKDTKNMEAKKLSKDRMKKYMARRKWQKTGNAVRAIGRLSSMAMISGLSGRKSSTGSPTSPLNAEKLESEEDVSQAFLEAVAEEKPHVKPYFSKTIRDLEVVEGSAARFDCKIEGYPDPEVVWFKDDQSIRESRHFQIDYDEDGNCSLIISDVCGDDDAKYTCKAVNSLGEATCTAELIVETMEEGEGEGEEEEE
# Experimental: as §5
# Pim-2(h) = Pim-2(h) (Homo sapiens, UniProt Q9P1W9); experiment: Kinase Profiler; assay type: biochemical
# Experimental: as §5
# EphB1(h) = EphB1(h) (Homo sapiens, UniProt P54762); experiment: Kinase Profiler; assay type: biochemical
# Experimental: as §5
# Hck(h) = Hck(h) (Homo sapiens, UniProt P08631); experiment: Kinase Profiler; assay type: biochemical
# Experimental: as §6
# Calcium Channel N-Type = Calcium Channel N-Type (Rattus norvegicus, UniProt Q02294); experiment: Safety screen; assay type: binding
# STK39(h) = STK39(h) (Homo sapiens, UniProt Q9UEW8); experiment: Kinase Profiler; assay type: biochemical
# Experimental: as §6
# TTBK1(h) = TTBK1(h) (Homo sapiens, UniProt Q5TCY1); experiment: Kinase Profiler; assay type: biochemical
# Experimental: as §6
# MAPK1(h) = MAPK1(h) (Homo sapiens, UniProt P27361); experiment: Kinase Profiler; assay type: biochemical
# Experimental: as §6
# RAC1b = target: T1, RAC1b (Homo sapiens, UniProt P63000); experiment: RAC-GTP pull-down in transfected NIH-3T3 fibroblasts; assay type: cell-based; settings: 10^-5 M
# T1 construct: expressed in transfected cells; host or cells: NIH-3T3 fibroblasts
# Experimental: (§1) Figure 4 A41 selectively impairs RAC protein activation (A) Representative surface plasmon resonance (SPR) sensograms of binding of immobilized RHOA or CDC42 with indicated increasing concentrations of A41 (N > 3). (B) Effect of A41 on GEF-stimulated RAC2, RHOG, RHOA, and CDC42 nucleotide exchange. Purified small G proteins were pre-loaded with GDP and then nucleotide exchange was monitored by the increase in fluorescence following mant-GTP binding in the absence and presence of A41 (5 μM) (N = 3). Kobs is expressed as mean ± SEM. ∗p < 0.001 vs. control. (C) Effect of A41 on RAC1 G30S activation. RAC1 G30S activation was monitored by the increase in fluorescence following mant-GTP binding in the absence and presence of A41 (5 μM). […] Data are expressed as mean ± SEM. (D) Immunoblot analysis and associated quantification of RAC-GTP level and total RAC expression in NIH-3T3 fibroblasts expressing RAC wild-type (RAC1 WT) or RAC1 oncomutants (RAC1 P29S and RAC1b) in the absence (Ctrl) and presence of A41 (10 μM). RAC activation was measured as the ratio of RAC-GTP to total RAC and expressed relative to Ctrl condition. […]
# (§2) Pull-down assay using GST-PBD fusion proteins were performed on NIH-3T3 lysates to assess RAC1 activity as previously described.[63] The precipitated active RAC was subjected to SDS-PAGE and detected by immunoblot with anti-RAC1 antibody (BD biosciences) (dilution 1/1000).
# RAC1 P29S = target: T2, RAC1 P29S (Homo sapiens, UniProt P63000, P29S); experiment: as above; assay type: cell-based; settings: 10^-5 M
# T2 construct: expressed in transfected cells; host or cells: NIH-3T3 fibroblasts
# Experimental: as §1, §2
# TA100 = experiment: Bacterial cytotoxicity; assay type: cell-based
# From the text: (§3) Data S2. Bacterial cytotoxicity of A41.
# (§4) Test Concentration %Effect Cytotoxicity (% of control) […]
# TA1535 = experiment: Bacterial cytotoxicity; assay type: cell-based
# From the text: as §3, §4
# Sequence of Opiate µ(OP3, MOP) (P35372 whole entry): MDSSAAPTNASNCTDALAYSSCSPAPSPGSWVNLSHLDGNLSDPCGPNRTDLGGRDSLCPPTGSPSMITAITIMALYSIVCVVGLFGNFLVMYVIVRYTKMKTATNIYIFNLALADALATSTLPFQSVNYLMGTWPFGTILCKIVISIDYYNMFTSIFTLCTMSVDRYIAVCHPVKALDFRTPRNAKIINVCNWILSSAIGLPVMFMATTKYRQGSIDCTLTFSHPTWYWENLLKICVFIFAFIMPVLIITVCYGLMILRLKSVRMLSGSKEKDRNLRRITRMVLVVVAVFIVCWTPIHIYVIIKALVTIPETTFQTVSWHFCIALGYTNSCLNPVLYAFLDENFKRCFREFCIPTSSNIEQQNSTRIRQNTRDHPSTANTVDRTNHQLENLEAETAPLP
compound,measurement,setting,value
COc1ccc(OC)c(NS(=O)(=O)c2ccc(NC(=O)CCSc3ccc(C)cc3)cc2)c1 [Compound A41],% inh.,"Opiate µ(OP3, MOP)",14%
same,Activity(%),IGF-1R(h),100%
same,Activity(%),EGFR(h),115%
same,Activity(%),GRK6(h),100%
same,Activity(%),CaMKIIδ(h),92%
same,% inh.,[1],30%
same,Activity(%),Axl(h),101%
same,Activity(%),PKCε(h),102%
same,% inh.,[2],0%
same,Activity(%),eEF-2K(h),97%
same,Activity(%),PAK3(h),107%
same,% inh.,Progesterone PR-B,-16%
same,Activity(%),ALK(h),82%
same,Activity(%),MLCK(h),103%
same,Activity(%),Pim-2(h),110%
same,Activity(%),EphB1(h),111%
same,Activity(%),Hck(h),111%
same,% inh.,Calcium Channel N-Type,3%
same,Activity(%),STK39(h),91%
same,Activity(%),TTBK1(h),103%
same,Activity(%),MAPK1(h),103%
same,activity of RAC1b (RAC-GTP),RAC1b,reduced the activity
same,activity of RAC P29S (RAC-GTP),RAC1 P29S,reduced the activity
same,"%Effect, single replicates (1st, 2nd, 3rd)","TA100; - S9, 1.0E-04 M",222.5% and 205.5% and 199.0%
same,"Cytotoxicity (% of control), Mean %Effect","TA100; - S9, 1.0E-04 M",209.0%
same,"%Effect, single replicates (1st, 2nd, 3rd)","TA100; - S9, 1.0E-05 M",116.5% and 108.6% and 92.9%
same,"Cytotoxicity (% of control), Mean %Effect","TA100; - S9, 1.0E-05 M",106.0%
same,"%Effect, single replicates (1st, 2nd, 3rd)","TA100; - S9, 1.2E-06 M",103.4% and 99.5% and 92.9%
same,"Cytotoxicity (% of control), Mean %Effect","TA100; - S9, 1.2E-06 M",98.6%
same,"%Effect, single replicates (1st, 2nd, 3rd)","TA100; - S9, 2.5E-05 M",113.9% and 111.3% and 100.8%
same,"Cytotoxicity (% of control), Mean %Effect","TA100; - S9, 2.5E-05 M",108.6%
same,"%Effect, single replicates (1st, 2nd, 3rd)","TA100; - S9, 2.5E-06 M",106.0% and 103.4% and 92.9%
same,"Cytotoxicity (% of control), Mean %Effect","TA100; - S9, 2.5E-06 M",100.8%
same,"%Effect, single replicates (1st, 2nd, 3rd)","TA100; - S9, 5.0E-05 M",112.6% and 53.1% and 102.1%
same,"%Effect, single replicates (1st, 2nd, 3rd)","TA100; - S9, 5.0E-06 M",116.5% (2×) and 91.6%
same,"Cytotoxicity (% of control), Mean %Effect","TA100; - S9, 5.0E-06 M",108.2%
same,"%Effect, single replicates (1st, 2nd, 3rd)","TA100; - S9, 6.0E-07 M",104.7% (2×) and 98.2%
same,"Cytotoxicity (% of control), Mean %Effect","TA100; - S9, 6.0E-07 M",102.5%
same,"%Effect, single replicates (1st, 2nd, 3rd)","TA1535; - S9, 1.0E-04 M",219.4% and 233.3% and 215.9%
same,"Cytotoxicity (% of control), Mean %Effect","TA1535; - S9, 1.0E-04 M",222.9%
same,"%Effect, single replicates (1st, 2nd, 3rd)","TA1535; - S9, 1.0E-05 M",96.4% and 98.7% and 108.0%
same,"Cytotoxicity (% of control), Mean %Effect","TA1535; - S9, 1.0E-05 M",101.0%
same,"%Effect, single replicates (1st, 2nd, 3rd)","TA1535; - S9, 1.2E-06 M",91.7% and 97.5% and 88.2%
same,"Cytotoxicity (% of control), Mean %Effect","TA1535; - S9, 1.2E-06 M",92.5%
same,"%Effect, single replicates (1st, 2nd, 3rd)","TA1535; - S9, 2.5E-05 M",116.1% and 99.8% and 98.7%
same,"Cytotoxicity (% of control), Mean %Effect","TA1535; - S9, 2.5E-05 M",104.9%
same,"%Effect, single replicates (1st, 2nd, 3rd)","TA1535; - S9, 2.5E-06 M",92.9% and 91.7% and 97.5%
same,"Cytotoxicity (% of control), Mean %Effect","TA1535; - S9, 2.5E-06 M",94.0%
same,"%Effect, single replicates (1st, 2nd, 3rd)","TA1535; - S9, 5.0E-05 M",168.3% and 163.7% and 175.3%
same,"Cytotoxicity (% of control), Mean %Effect","TA1535; - S9, 5.0E-05 M",169.1%
same,"%Effect, single replicates (1st, 2nd, 3rd)","TA1535; - S9, 5.0E-06 M",96.4% and 95.2% and 99.8%
same,"Cytotoxicity (% of control), Mean %Effect","TA1535; - S9, 5.0E-06 M",97.1%
same,"%Effect, single replicates (1st, 2nd, 3rd)","TA1535; - S9, 6.0E-07 M",89.4% and 96.4% and 94.0%
same,"Cytotoxicity (% of control), Mean %Effect","TA1535; - S9, 6.0E-07 M",93.3%
